The results in this text go back to US20100093641A1, “SILK PROTEIN-MIMICKING PEPTIDES AND COMPOSITIONS FOR PREVENTING OR TREATING CRANIAL NEUROPATHIES COMPRISING THE SAME” (BRAINGUARD CO.,LTD., priority 2006, published 2010).

Assay [1] deals with Alzheimer's disease animal models. The assay is described as follows: Passive avoidance test after amyloid beta injection. The class given is in vivo, rat. Particulars: amyloid beta injected; 5 mg/kg i.p. for 2 weeks; FIG. 4. The protocol: This experiment was carried out according to the passive avoidance test to examine whether the SMPs prevents the declines in learning and memory abilities by neurotoxic substances. Before performing learning test, the amyloid beta protein was injected into animals through the ventral lateral region using a stereotaxic system, resulting in establishing Alzheimer's disease animal models. 3-day later, 5 mg/kg of SMPs were intraperitoneally administered for 2 weeks. Automated shuttle box (Model PACS-30, Columbus Instruments International Company) was used as test device. The shuttle box was divided into two rooms with the same area (19″ L×9″ W×10.875″ H) by middle door (3″ L×2.625″ W), and their floors were equipped with current-generating device. Each room might be lighted a 20 W light bulb on hinged plexiglass lid. A white rat might enter a dark room through the door. Noise was control below 60 dB and the test was performed in the dark room. The rat was initially placed in a lighted room and moved to a dark room when the door was opened. At this time, the door was automatically closed and light was turned off. […] Two weeks after injection of the amyloid beta protein through the ventral lateral region (8 nmol/ 5 μl in normal saline), the rat was placed in the lighted room, and time required for the rat to move to the dark room was measured. […]

The next assay has as its system dopaminergic neurons. The experiment in a line: Dopaminergic neuronal cell death induced by 6-OHDA, methyl green histochemical staining. It counts as in vivo. Particulars: 6-OHDA injected mice; SMPs 5 mg/kg intraperitoneally for 2 weeks; FIG. 1. The protocol: To analyze neuroprotective effects of the present peptides SMPs, their influence on the death of dopaminergic neurons, a main cause of Parkinson's disease, was tested. 6-OHDA (6-hydroxydopamine) was injected into brain tissues using a stereotaxic system and the death of dopaminergic neurons was observed by histochemcial staining.
5-week old male mice (SAMTAKO, Korea) were used. Four-week old mice were purchased and adapted for one week, followed by inducing the death of neuronal cells using a stereotaxic system (KOFT, CA, USA). In these experiments, 6-OHDA (3 μg/μl in normal saline) was injected into the desired region (0.0 mm posterior to bregma; 2.0 mm lateral to midline; 3.0 mm ventral to the dura) by use of the stereotaxic system, resulting in establishment of animal models. 6-OHDA was injected into substantial nigra in which neurites of dopminergic neurons are connected and sustained death of dopminergic neurons is well induced. After injection of 6-OHDA, 5 mg/kg of SMPs were intraperitoneally administered for 2 weeks. Thereafter, the test mice were fixed using 4% paraformaldehyde. Following the dissection of brain tissues from test mice, they were washed with PBS containing 4% paraformaldehyde for 24 hr and then dehydrated for 4 days using 15%, 20%, 25% and 30% sucrose solutions. The brain tissues were sliced by a freezing microtome. […]

The test system of assay [2] is PD animal models having apoptotic dopaminergic neuronal cells by 6-OHDA. The experiment in a line: Amphetamine-induced asymmetric rotation in 6-OHDA Parkinson's disease animal models. It counts as in vivo. The following applies: 6-OHDA mice; SMPs 5 mg/kg intraperitoneally for 2 weeks; FIG. 2. The protocol:
The protection efficacy of the present peptides was tested by behavior experiments using animal models. The mice with damaged dopaminergic neurons by 6-OHDA were administered with amphetamine to induce asymmetric rotation. Then, the present peptides were examined to recover normal states.
5-week old male mice (SAMTAKO, Korea) were used. Four-week old mice were purchased and adapted for one week, followed by establishing animal models using a stereotaxic system (KOFT, CA, USA). In these experiments, 6-OHDA (3 μg/μl in normal saline) was injected into the desired region (0.0 mm posterior to bregma; 2.0 mm lateral to midline; 3.0 mm ventral to the dura) by use of the stereotaxic system, resulting in establishment of animal models. 6-OHDA was injected into substantial nigra in which neurites of dopminergic neurons are connected and sustained death of dopminergic neurons is well induced. Two weeks after 6-OHDA injection, animals were tested for amphetamine-induced turning behavior (amphetamine at 0.1 mg/kg i.p.). The mice were tested for […]. Animals with net rotational asymmetry of at least 400 full turns were selected for test. 5 mg/kg of SMPs were intraperitoneally administered for 2 weeks and their effects were examined by behavior tests. The asymmetric rotation was rapidly relieved with the lapse of time.

Assay [3] has as its system SK-N-SH cells. The assay is described as follows: Nuclear fragmentation by Hoechst 33258 staining against amyloid beta. It counts as cell-based, human. Particulars: 10 fM for 2 hr, then 20 μM amyloid beta for 24 hr; FIG. 6a. The protocol: The morphological changes of nuclear chromosomes by amyloid beta were observed by staining with DNA-binding fluorochrome bis-benz (Hoechst 33258 dye). SK—N—SH cells were incubated with 10 fM SMPs for 2 hr and then with 20 μM amyloid beta for 24 hr. 0.5-3.0×10^6 cells treated were centrifuged at 300×g for 10 min and washed with PBS, followed by fixation with 50 μl paraformaldehyde for 10 min at room temperature. After washing with PBS, cells were incubated with 16 μg/ml bis-benzimide in PBS (15 μl) for 15 min at room temperature and their 10 μl-aliquot was placed on a slid glass, followed by the observation of apoptotic nuclear chromosome under a fluorescence microscope.

The test system of assay [4] is SK-N-SH cells. The experiment in a line: Mitochondrial membrane potential by TMRE staining against amyloid beta. The class given is cell-based, human. Particulars: 10 fM for 2 hr, then 20 μM amyloid beta for 6 hr; FIGS. 8a-8c. An excerpt:
We examined the influence of the present peptides on subcellular mitochondria to play a crucial role in cellular energy generation. It have been already reported that the amyloid beta protein induces elevation of reactive oxygen species in cells and simultaneously results in nuclear fragmentation, dysfunction of mitochondrial membrane and loss of mitochondrial functions. In this regard, we examined the influence of the present peptides on mitochondrial functions relating closely to cell viability.
Using a fluorescent staining with TMRE (tetramethyl rhodamine-ethylester, Molecular Probe), the disruption of mitochondrial membrane potential was measured. The positively charged TMRE is penetrated into mitochondrial membrane with help of mitochondrial membrane potential, and the fluorescent intensities indicate the maintenance of mitochondrial membrane potential. SK—N—SH cells (ATCC) were first treated with 10 fM SMPs for 2 hr and then with 20 μM amyloid beta protein for 6 hr. Afterwards, cells were incubated for 15 min at 37° C. with 100 nM TMRE and the fluorescent intensities were measured using a fluoremetry at excitation wavelength of 549 nm and emission wavelength of 574 nm. The fluorescent images were taken using a fluorescence microscope (Olympus IX70) and CCD camera.

Assay [5] concerns SK-N-SH cells. The assay is described as follows: MTT reduction cell viability against amyloid beta. The class given is cell-based, human. The following applies: 10 fM for 2 hr before amyloid beta, 48 hr; FIG. 6b. An excerpt: The survival rate and nuclear fragmentation of neuronal cells indicating apoptosis of neuron were examined to verify the neuroprotective effects of SMPs against neurotoxic effects of the amyloid beta protein. For identifying mechanisms governing the protective effects against amyloid beta in animal tests, neurotoxic effects and nuclear damages in neuronal cell lines were examined. The substance “cosmo” used in this experiment was obtained by a preparation process identical to that for the substance MD.
The MTT reduction analysis was carried out. The human neuroblastoma cells, SK—N—SH cells (ATCC) were plated on PEI-coated 96-well plates at a density of 40,000 cells/well. The cells were cultured in DMEM supplemented with 10% FBS (fetal bovine serum). 2-hr before experiments, the medium was changed with low serum medium (DMEM with 1% FBS) and the cells were incubated with each test substance. […] Formazan precipitates formed by MTT reduction were dissolved in the solution (0.1 N HCl in anhydrous isopropanol), and absorbance at 570 nm was determined by ELISA
Reader. The value of the control group (only containing solvent) was determined as 100% and that of 0.9% Triton X-100-treated group as 0%. The value of each sample was relatively determined with referring the reference values.

The subject of a further assay is p-Akt. The experiment in a line: p-Akt level on electrophoresis under high glucose. It counts as cell-based, human. The following applies: 35 mM glucose; FIG. 9b. As to the method: To identify molecular mechanisms governing neuroprotective activities of the present peptides on apoptosis of neuronal cells caused by high glucose level, p-Akt and p-JNK were analyzed on electrophoresis.

The test system of assay [6] is SK-N-SH cells. The assay is described as follows: Reactive oxygen species by DCF-DA staining against amyloid beta. The class given is cell-based, human. Particulars: 10 fM for 2 hr, then 20 μM amyloid beta; FIG. 7a. As to the method: For identifying molecular mechanisms governing neuroprotective effects of the present peptides, reactive oxygen species (ROS) known to involve in neurotoxicity of amyloid beta were analyzed. Using a DCF-DA staining method, quantitative determination of reactive oxygen species was performed and microscopic observation was performed.
SK—N—SH cells (ATCC) were first treated with 10 fM SMPs for 2 hr and then with 20 μM amyloid beta protein. Afterwards, cells were incubated for 30 min at 37° C. with 10 μM DCF-DA (6-carboxy-2′,7′-dichloro-dihydrofluoresceine diacetate, dicarboxym-ethylester) dissolved in HCSS buffer solution (20 mM HEPES, 2.3 mM CaCl2, 120 mM NaCl, 10 mM NaOH, 5 mM KC1, 1.6 mM MgCl2, 15 mM glucose) and 2% Pluronic F-127 (suspension additive).

In the next assay the test system is SK-N-SH neuronal cells. The experiment in a line: Neuronal damage caused by high glucose level. It counts as cell-based, human. The following applies: 35 mM glucose, 3 hr; FIG. 9a. The protocol: Diabetes characterized by high level of glucose causes events to damage cells and tissues. This experiment is to analyze neuroprotective activities of SMPs on SK—N—SH neuronal cells in high level of glucose (35 mM).

No end group written: not given here.

With `COc1ccc2[nH]cc(CCNC(C)=O)c2c1` [melatonin], the “decline in learning and memory abilities (passive avoidance)” value in assay [1] was “prevent the decline in learning and memory abilities”. Further, the “prevention of death of dopaminergic neurons (neurotoxicity of 6-OHDA)” value in the assay with dopaminergic neurons is reported as “effectively prevented”. Besides, the “relief of behavior disorders (amphetamine-induced asymmetric rotation)” value in [2] was “contribute to the relief of behavior disorders”.
GAGAGVGY [SMP-1, GAGAGVGY]: in the assay with SK-N-SH cells [3], the nuclear fragmentation result is “greatly decreased”. Further, in the assay with SK-N-SH cells [4], the “abnormality of mitochondrial membrane (TMRE fluorescence)” value was “little or no abnormality of mitochondrial membrane”. The “inhibition of apoptosis of neuronal cells (cell viability, MTT)” value in the assay with SK-N-SH cells [5] is on record as “dramatically inhibit apoptosis of neuronal cells”. In addition, the “level of p-Akt” value in the assay with p-Akt is recorded as “highest level of p-Akt”. Also, the “levels of reactive oxygen species” value with SK-N-SH cells [6] is listed as “decrease in levels of reactive oxygen species at similar extent”. Moreover, the “inhibition of apoptosis caused by high glucose level” value in the assay with SK-N-SH neuronal cells was “effectively inhibits apoptosis”.
Turning to GVGAGY [SMP-4, GVGAGY], the nuclear fragmentation entry in the assay with SK-N-SH cells [3] is given as “greatly decreased”. Further, the “abnormality of mitochondrial membrane (TMRE fluorescence)” value in the assay on SK-N-SH cells [4] is “little or no abnormality of mitochondrial membrane”. For the same compound, the “inhibition of apoptosis of neuronal cells (cell viability, MTT)” value in the assay on SK-N-SH cells [5] is “dramatically inhibit apoptosis of neuronal cells”. Besides, in the assay with SK-N-SH cells [6], the “effect on reactive oxygen species compared to oligo 1” value is “a little enhanced effects compared to the oligo 1” and the “levels of reactive oxygen species” value is on record as “decrease in levels of reactive oxygen species at similar extent”. For the same compound, the “inhibition of apoptosis caused by high glucose level” value in the assay with SK-N-SH neuronal cells is “effectively inhibits apoptosis”.
